The results in this text go back to patent US10227560B2, “Biomimetic support for three-dimensional cell culturing, method for manufacturing same, and use thereof” (PUSAN NATIONAL UNIVERSITY INDUSTRY-UNIVERSITY COOPERATION …, priority 2014, dated 2019).

Where two headings read alike, the source gives them in different places.

By viability is commonly meant the share of living cells, or the viability signal relative to a control.

The subject of one data set is EL4 cells. The data set is described as follows: cells. The settings on record: Mus musculus.
Data set [1] deals with human ovarian cancer cell A2780. As to the kind of experiment: cells. The settings on record: for viability at 0.5 µM: A2780, 24 h.
Experimental: In the case of A2780 cells, 0.125 wt % agarose-7.5 wt % marine collagen-1 wt % alginate composite hydrogel support was prepared in the same manner as in Example 9, the cells were added to 96-well plate to induce the gelation at 4° C. for 5-10 minutes, and then cultured in the medium. In addition, the conventional two-dimensional cell culture was also performed as a control for three-dimensional cell culture.
(§5) In order to perform a sensitivity assay for an anticancer agent, EL4 and human ovarian cancer cell A2780 were cultured in an agarose-marine collagen-alginate composite hydrogel support in a two-dimensional and three-dimensional environment and an efficacy test for an anticancer agent was performed. EL4 cells cultured in two-dimensional culture conditions and EL4 cells cultured three-dimensionally in an agarose-marine collagen-alginate composite hydrogel support were treated with 5 μM doxorubicin (5927, cell signaling) and 100 μM resveratrol and the human ovarian cancer cell A2780 was treated with paclitaxel at a concentration of 0.5 μM for 24 hours, and then with WST-1 reagent, and absorbance was measured at 450 nm by a microplate reader to calculate percent growth rate.
In addition, 10 and 20 μM paclitaxel, and 30 and 50 μM curcumin were added to A2780 cells cultured in two-dimensional condition and A2780 cells cultured three-dimensionally for 7 days in agarose-marine collagen-alginate composite hydrogel supports, and the control group was treated with DMSO at the same concentration as the experimental group. The WST-1 reagent was then treated and the absorbance at 450 nm was measured by a microplate reader to calculate the percentage growth rate.
Data set [2] relates to human non-small cell lung cancer (NCI-H1703) cells. As to the kind of experiment: Anticancer drug susceptibility, WST-1 cell viability, 2D culture vs 3D culture on Fc 4%-Sc 50% fish collagen/PCL nanofiber support. The class given is cell-based. Conditions: 3 μM doxorubicin, read-out: cell viability as compared with the control group. The procedure:
(§1) First, an Fc 4%-Sc 50% fish collagen/PCL nanofiber support prepared in the same manner as in Example 1, was placed in a 96-well plate and NCI-H1703 and DU-145 cells were inoculated at a concentration of 5×10^4 cells/well. […] The results are expressed as mean±standard deviation (SD) for each analysis. Statistical analysis was performed using a two-tailed t-test and statistical significance was evaluated based on P<0.05.
(Formazan colour is commonly taken as a measure of viable cells.)

Data set [3] relates to prostate cancer cell line DU-145. Described as above. The class given is cell-based. The settings on record: Homo sapiens, 3 μM paclitaxel, read-out: cell viability as compared with the control group. The procedure:
as §1

For another data set, the system named is CREC cells. The settings on record: 18 to 24 hours.
The test system of data set [4] is mouse T cell lymphoma cells (EL4). Conditions: 18 to 24 hours. The protocol: (§2) The cytotoxicity assay was performed by the conventional method [H. Lee et al., Regul. Pept. (2008), 147, 72-81]. The cells of Reference Example 1 were dispensed in a 96-well plate at a concentration of 1×10^4 cells/well for R182 and A2780 cells together with 0.1 mL of 10% FBS containing cell medium, and a concentration of 1×10^5 cells/well for […] the cells were cultured for 24 hours and then cultured for 12-16 hours in the absence of FBS.
(§3) The cultured cells were treated with various concentrations of calcium chloride (CaCl2, Sigma-Aldrich) at concentrations of 10, 50, 100, 200 and 300 mM and cultured for 18 to 24 hours to perform WST-1 assay (EZ-Cytox Cell Viability Assay kit, Daeillab Service, Seoul, Korea) for cell cytotoxicity assay.
(§4) WST-1 reagent of 10 μL was added to each well and incubated for 2 hours in a humidified incubator at 37° C. and 5% CO2 and the absorbance was measured at 450 nm using a microplate reader (Tecan, M, Switzerland) to calculate the percent growth rate.

Data set [5] has as its system human ovarian cancer cell R182. The procedure: as §2, §3, §4
Data set [6] has as its system human ovarian cancer cells A2780. The protocol:
as §2, §3, §4

Setting [7] is: EL4, read-out: cell viability compared to the control group.
[8] abbreviates: EL4, read-out: viability as compared with the control group.

Experimental for CREC cells: The cells of Reference Example 1 were dispensed in a 96-well plate at a concentration of 1×10^4 cells/well for R182 and A2780 cells together with 0.1 mL of 10% FBS containing cell medium, and a concentration of 1×10^5 cells/well for R182 and A2780 cells, and the cells were cultured for 24 hours and then cultured for 12-16 hours in the absence of FBS.
Experimental for EL4 cells: In the case of EL4 cells, 0.125 wt % agarose-10 wt % marine collagen-1 wt % alginate composite hydrogel support was prepared in the same manner as in Example 9, and cells were added, and the mixture liquid was added to a 1 mL syringe with 80 μL to induce the gelation at 4° C. for 5-10 minutes, and then cultured in a 48-well plate.
as §5

As to `Oc1ccc(C=Cc2cc(O)cc(O)c2)cc1` [resveratrol], the viability at 100 µM in the data set on EL4 cells (setting [7]) came to 93.5%; with EL4 cells (setting [8]), 50.2%.

`COc1cc(/C=C/C(=O)CC(=O)/C=C/c2ccc(O)c(OC)c2)ccc1O` [curcumin]: the viability at 30 µM in data set [1] (A2780, read-out: cell viability, 30 μM curcumin, second pair of values, printed again as two-dimensional environment) came out at 95%; in data set [1] (A2780, read-out: cell viability, 30 μM curcumin, two-dimensional environment) it was 42.5%. Also, the viability at 50 µM in data set [1] (A2780, read-out: cell viability, 50 μM curcumin, second pair of values, printed again as two-dimensional environment) is 82.4%; in data set [1] (A2780, read-out: cell viability, 50 μM curcumin, two-dimensional environment), 36.7%.

Take `COc1cccc2c1C(=O)c1c(O)c3c(c(O)c1C2=O)C[C@@](O)(C(=O)CO)C[C@@H]3O[C@H]1C[C@H](N)[C@H](O)[C@H](C)O1` [doxorubicin]: the viability at 3 µM worked out at 94.5% in data set [2] (NCI-H1703, 24 h, 24 hours, three-dimensional environment (Fc 4%-Sc 50% support)); 55.1% in data set [2] (NCI-H1703, 24 h, 24 hours, two-dimensional environment); 95.7% in data set [2] (NCI-H1703, 48 h, 48 hours, three-dimensional environment (Fc 4%-Sc 50% support)); 40.8% in data set [2] (NCI-H1703, 48 h, 48 hours, two-dimensional environment). In addition, the viability at 5 µM in the data set with EL4 cells (setting [7]) came to 71.4%; in the data set with EL4 cells (setting [8]) it was 58.6%.

`CC(=O)O[C@H]1C(=O)[C@@]2(C)[C@H]([C@H](OC(=O)c3ccccc3)[C@]3(O)C[C@H](OC(=O)[C@H](O)[C@@H](NC(=O)c4ccccc4)c4ccccc4)C(C)=C1C3(C)C)[C@]1(OC(C)=O)CO[C@@H]1C[C@@H]2O` [paclitaxel]: the viability at 10 µM in data set [1] (A2780, 10 μM paclitaxel, two-dimensional environment) was determined as 12.3%; in data set [1] (A2780, 168 h, 10 μM paclitaxel, three-dimensional environment (cultured 7 days in hydrogel support)), 40.2%. The viability at 20 µM came to 6.4% in data set [1] (A2780, 20 μM paclitaxel, two-dimensional environment) and 51.4% in data set [1] (A2780, 168 h, 20 μM paclitaxel, three-dimensional environment (cultured 7 days in hydrogel support)). Moreover, the viability at 0.5 µM is 94.2% in data set [1] (read-out: cell viability, 0.5 μM paclitaxel, 24 hours, three-dimensional environment (hydrogel support)) and 60.9% in data set [1] (read-out: viability as compared with the control group, 0.5 μM paclitaxel, 24 hours, two-dimensional environment). In addition, the viability at 3 µM came to 93.5% in data set [3] (DU-145, 24 h, 24 hours, three-dimensional environment (Fc 4%-Sc 50% support)); 50.2% in data set [3] (DU-145, 24 h, 24 hours, two-dimensional environment); 64.2% in data set [3] (DU-145, 48 h, 48 hours, three-dimensional environment (Fc 4%-Sc 50% support)); 14.6% in data set [3] (DU-145, 48 h, 48 hours, two-dimensional environment).

In the case of `[Ca+2].[Cl-].[Cl-]` [CaCl2, calcium chloride], the “dose-dependent cytotoxic effect (WST-1, percent growth rate)” value was found to be 81.1% in the data set with CREC cells (10 mM); 36.8% in the data set with CREC cells (50 mM); 23.0% with CREC cells (100 mM); 9.9% in the data set with CREC cells (200 mM); 10.3% in the data set with CREC cells (300 mM); 101.3% in data set [4] (10 mM). Moreover, the “dose-dependent cytotoxic effect (WST-1, percent growth rate)” value in data set [4] (50 mM) stood at 59.2%; in data set [4] (100 mM), 25.4%; in data set [4] (200 mM), 11.2%; in data set [4] (300 mM), 9.7%; in data set [6] (50 mM), 74.9%; in data set [6] (100 mM) it was 65.9%. Moreover, the “dose-dependent cytotoxic effect (WST-1, percent growth rate)” value in data set [6] (150 mM) is reported as 41.5%; in data set [6] (200 mM), 37.9%; in data set [6] (250 mM), 39.5%; in data set [6] (300 mM), 43.7%. For the same molecule, the “cytotoxic effect (WST-1, percent growth rate)” value worked out at 34.1% in data set [5] (50 mM); 26.4% in data set [5] (100 mM); 21.1% in data set [5] (150 mM); 21.4% in data set [5] (200 mM); 24.9% in data set [5] (250 mM); 25.6% in data set [5] (300 mM).
